# Columns and labels:
# Type in all cases: in vivo
# [1] = test system: larvae of the cotton bollworm (Heliothis armigera); experiment: Example 5: Heliothis armigera on Cotton (DP444 BG/RR), dip application, kill in %
# Method: Individually potted transgenic cotton plants with Lepidoptera resistance and herbicide resistance (cultivar DP444 BG/RR) are treated in 2 replications against larvae of the cotton bollworm (Heliothis armigera). Application is carried out by dip application with the respective active compound at the desired application rate.
# (§1) After the desired period of time, the kill in % is determined. 100% means that all caterpillars have been killed; 0% means that none of the caterpillars have been killed.
# [2] = test system: armyworm (Spodoptera frugiperda); experiment: Example 6: Spodoptera frugiperda on Cotton (DP444 BG/RR), dip application, kill in %
# Method: Individually potted transgenic cotton plants with Lepidoptera resistance and herbicide resistance (cultivar DP444 BG/RR) are treated in 2 replications against the armyworm (Spodoptera frugiperda). Application is by dip application with the respective active compound at the desired application rate.
# as §1
# [3] = test system: larvae of the beet armyworm (Spodoptera exigua); experiment: Example 8: Spodoptera exigua on Maize, dip application, kill in %; settings: 100 ppm
# Method: (§2) Pots with in each case 5 transgenic maize plants having Coleoptera, Lepidoptera and/or herbicide resistance (cultivars LH332RR×LH324BT, LH244RR×LH324, HC33CRW×LH287BTCRW and TR47×TR 7322 BT) are treated in 2 replications against larvae of the beet armyworm (Spodoptera exigua). Application is carried out by dip application with the respective active compound at the desired application rate.
# as §1
# [4] = test system: armyworm (Spodoptera frugiperda); experiment: Example 9: Spodoptera frugiperda on Maize, dip application, kill in %; settings: 100 ppm
# Method: as §2, with “HC33CRW×LH287BTCRW,” for “LH332RR×LH324BT, LH244RR×LH324, HC33CRW×LH287BTCRW and”, “against” for “against larvae of”, “the” for “the beet”, “frugiperda).” for “exigua).”
# as §1
# [5] = test system: armyworm (Spodoptera frugiperda); experiment: Example 10: Spodoptera frugiperda on Maize (Drench Application), kill in %; settings: 100 ppm
# Method: Pots with in each case 5 transgenic maize plants having Coleoptera. Lepidoptera and/or herbicide resistance (cultivars HC33CRW×LH287BTCRW, LH332RR×LH324BT, LH24-4RR×LH324 and FR 1064LL×FR 2108) are treated in 2 replications against the armyworm (Spodoptera frugiperda). Application is carried out by drench application with the respective active compound at the desired application rate.
# as §1
# [6] = test system: cotton aphid (Aphis gossypii); experiment: Example 4: Aphis gossypii on Cotton (DP444 BG/RR), dip application, kill in %; settings: 0.8 ppm
# Method: Individually potted transgenic cotton plants with Lepidoptera resistance and herbicide resistance (cultivar DP444 BG/RR), which are populated by a mixed population of the cotton aphid (Aphis gossypii) are treated by dip application with the respective active compound.
# After the desired period of time, the kill in % is determined. 100% means that all aphids have been killed; 0% means that none of the aphids have been killed.
# [7] = test system: larvae of the banded cucumber beetle (Diabrotica balteata); experiment: Example 7: Diabrotica balteata on Maize, drench application, kill in %; settings: 100 ppm
# Method: Pots with in each case 5 transgenic maize plants having Coleoptera, Lepidoptera and/or herbicide resistance (cultivars LH244RR×LH324 and HCL 201CRW2RR2×LH 324) are treated in 2 replications against larvae of the banded cucumber beetle (Diabrotica balteata). Application is carried out by drench application with the respective active compound at the desired application rate.
# After the desired period of time, the kill in % is determined. 100% means that all beetle larvae have been killed; 0% means that none of the beetle larvae have been killed.
Compound,Kill rate in % after 4d (found) ([1]; 20 ppm) [%],"Kill rate in % after 6d (found) ([2]; 100 ppm, after 6 d) [%]",Kill rate in % after 4d (found) [3] [%],Kill rate in % after 4d (found) [4] [%],Kill rate in % after 6d (found) [5] [%],Kill rate in % after 6d (found) ([6]; after 6 d) [%],Kill rate in % after 4d (found) ([1]; 100 ppm) [%],Kill rate in % after 1d (found) ([6]; after 1 d) [%],"Kill rate in % after 4d (found) ([2]; 20 ppm, after 4 d) [%]",Kill rate in % after 10d (found) [7] [%],Kill rate in % after 1d (found) ([4]; after 1 d) [%]
"CN(Cc1cnc(Cl)c(F)c1)C1=CC(=O)OC1 [Compound I-6, 4-{[(6-chloro-5-fluoropyrid-3-yl)methyl](methyl)amino}furan-2(5H)-one]",0,20,0,0,0,,,,,,
"CN(Cc1ccc(Cl)nc1)C1=CC(=O)OC1 [Compound I-10, 4-{[(6-chloropyrid-3-yl)methyl](methyl)amino}furan-2(5H)-one]",,,10,,0,,,,,,
"O=C1C=C(N(CCF)Cc2ccc(Cl)nc2)CO1 [Compound I-4, 4-{[(6-chloropyrid-3-yl)methyl](2-fluoroethyl)amino}furan-2(5H)-one]",,,0,0,15,15,0,,,,
"O=C1C=C(N(Cc2ccc(Cl)nc2)CC(F)F)CO1 [Compound I-5, 4-{[(6-chloropyrid-3-yl)methyl](2,2-difluoroethyl)amino}furan-2(5H)-one]",,,,10,,,,40,0,45,0

# From patent US8481457B2, “Method for the improved use of the production potential of transgenic plants” (priority 2007, dated 2013)
